# Source: patent US20260042731A1, “(2,4-DICHLOROPHENOXY)ACETIC ACID ANALOGS” (CORTEVA AGRISCIENCE LLC, priority 2022, published 2026)
# Read-outs that look alike come from different tables or passages of the source.
# Tests used:
# [1] = tested on: glyphosate resistant Conyza canadensis (L.) (ERICA), horseweed; experiment: Postemergence herbicide evaluation, growth of Conyza canadensis (ERICA); type: in vivo; conditions: Erigeron canadensis, post-emergence, read-out: Ave. ERICA, percent reduction in plant size relative to the untreated control; for pest or weed control at 280 g/ha: 280 g ae/ha; for pest or weed control at 560 g/ha: 560 g ae/ha
# [2] = tested on: weeds ABUTH, AMATA, AMBEL, CHEAL, ERICA; experiment: Postemergence herbicide evaluation, overall average % weed control (ABUTH, AMATA, AMBEL, CHEAL, ERICA); type: in vivo; conditions: post-emergence, read-out: Overall Ave % Weed Control; for pest or weed control at 280 g/ha: 280 g ae/ha; for pest or weed control at 560 g/ha: 560 g ae/ha
# [3] = tested on: Chenopodium album (CHEAL), common lambsquarters; experiment: Postemergence herbicide evaluation, growth of Chenopodium album (CHEAL); type: in vivo; conditions: Chenopodium album, post-emergence, read-out: Ave. CHEAL, percent reduction in plant size relative to the untreated control; for pest or weed control at 280 g/ha: 280 g ae/ha; for pest or weed control at 560 g/ha: 560 g ae/ha
# [4] = tested on: Amaranthus rudis (AMATA), tall water hemp; experiment: Postemergence herbicide evaluation, growth of Amaranthus rudis (AMATA); type: in vivo; conditions: Amaranthus tuberculatus, post-emergence, read-out: Ave. AMATA, percent reduction in plant size relative to the untreated control; for pest or weed control at 280 g/ha: 280 g ae/ha; for pest or weed control at 560 g/ha: 560 g ae/ha
# [5] = tested on: Abutilon theophrasti (ABUTH), velvetleaf; experiment: Postemergence herbicide evaluation, growth of Abutilon theophrasti (ABUTH); type: in vivo; conditions: Abutilon theophrasti, post-emergence, read-out: AVE. ABUTH, percent reduction in plant size relative to the untreated control; for pest or weed control at 280 g/ha: 280 g ae/ha; for pest or weed control at 560 g/ha: 560 g ae/ha
# [6] = Volatility of compounds measured by thermogravimetric analysis (TGA); type: physicochemical
# [7] = tested on: Ambrosia artemisiifolia (AMBEL), common ragweed; experiment: Postemergence herbicide evaluation, growth of Ambrosia artemisiifolia (AMBEL); type: in vivo; conditions: Ambrosia artemisiifolia, post-emergence, read-out: AVE. AMBEL, percent reduction in plant size relative to the untreated control; for pest or weed control at 280 g/ha: 280 g ae/ha; for pest or weed control at 560 g/ha: 560 g ae/ha
# [8] = value marked *: decomposition of the material was observed
compound,measurement,setting,value
C/C(=N\OC(=O)COc1ccc(Cl)cc1Cl)c1cccnc1 [Compound A26],pest or weed control at 280 g/ha,"[1]; 168 h, 7 DAA",80%
same,pest or weed control at 560 g/ha,"[1]; 168 h, 7 DAA",82.5%
same,pest or weed control at 280 g/ha,"[1]; 336 h, 14 DAA",99%
same,pest or weed control at 560 g/ha,"[1]; 336 h, 14 DAA",99.5%
same,pest or weed control at 280 g/ha,"[1]; 504 h, 21 DAA",100%
same,pest or weed control at 560 g/ha,"[1]; 504 h, 21 DAA",100%
same,pest or weed control at 280 g/ha,"[2]; 168 h, 7 DAA",72%
same,pest or weed control at 560 g/ha,"[2]; 168 h, 7 DAA",80.3%
same,pest or weed control at 280 g/ha,"[2]; 336 h, 14 DAA",85.3%
same,pest or weed control at 560 g/ha,"[2]; 336 h, 14 DAA",93.4%
same,pest or weed control at 280 g/ha,"[2]; 504 h, 21 DAA",90.2%
same,pest or weed control at 560 g/ha,"[2]; 504 h, 21 DAA",97.5%
same,pest or weed control at 280 g/ha,"[3]; 168 h, 7 DAA",72.5%
same,pest or weed control at 560 g/ha,"[3]; 168 h, 7 DAA",80%
same,pest or weed control at 280 g/ha,"[3]; 336 h, 14 DAA",97.5%
same,pest or weed control at 560 g/ha,"[3]; 336 h, 14 DAA",95%
same,pest or weed control at 280 g/ha,"[3]; 504 h, 21 DAA",87.5%
same,pest or weed control at 560 g/ha,"[3]; 504 h, 21 DAA",95%
same,pest or weed control at 280 g/ha,"[4]; 168 h, 7 DAA",65%
same,pest or weed control at 560 g/ha,"[4]; 168 h, 7 DAA",94%
same,pest or weed control at 280 g/ha,"[4]; 336 h, 14 DAA",85%
same,pest or weed control at 560 g/ha,"[4]; 336 h, 14 DAA",90%
same,pest or weed control at 280 g/ha,"[4]; 504 h, 21 DAA",67.5%
same,pest or weed control at 560 g/ha,"[4]; 504 h, 21 DAA",92.5%
same,pest or weed control at 280 g/ha,"[5]; 168 h, 7 DAA",62.5%
same,pest or weed control at 560 g/ha,"[5]; 168 h, 7 DAA",67.5%
same,pest or weed control at 280 g/ha,"[5]; 336 h, 14 DAA",72.5%
same,pest or weed control at 560 g/ha,"[5]; 336 h, 14 DAA",92.5%
same,pest or weed control at 280 g/ha,"[5]; 504 h, 21 DAA",96%
same,pest or weed control at 560 g/ha,"[5]; 504 h, 21 DAA",100%
same,"TGA Data (rate of weight loss, volatility)",[6]; [8],1.599* μg/min
same,pest or weed control at 280 g/ha,"[7]; 168 h, 7 DAA",80%
same,pest or weed control at 560 g/ha,"[7]; 168 h, 7 DAA",77.5%
same,pest or weed control at 280 g/ha,"[7]; 336 h, 14 DAA",72.5%
same,pest or weed control at 560 g/ha,"[7]; 336 h, 14 DAA",90%
same,pest or weed control at 280 g/ha,"[7]; 504 h, 21 DAA",100%
same,pest or weed control at 560 g/ha,"[7]; 504 h, 21 DAA",100%
C/C(=N\OC(=O)COc1ccc(Cl)cc1Cl)c1ccncc1 [Compound A27],pest or weed control at 280 g/ha,"[1]; 168 h, 7 DAA",85%
same,pest or weed control at 560 g/ha,"[1]; 168 h, 7 DAA",82.5%
same,pest or weed control at 280 g/ha,"[1]; 336 h, 14 DAA",100%
same,pest or weed control at 560 g/ha,"[1]; 336 h, 14 DAA",100%
same,pest or weed control at 280 g/ha,"[1]; 504 h, 21 DAA",98.5%
same,pest or weed control at 560 g/ha,"[1]; 504 h, 21 DAA",97.5%
same,pest or weed control at 280 g/ha,"[2]; 168 h, 7 DAA",75.5%
same,pest or weed control at 560 g/ha,"[2]; 168 h, 7 DAA",85%
same,pest or weed control at 280 g/ha,"[2]; 336 h, 14 DAA",87.6%
same,pest or weed control at 560 g/ha,"[2]; 336 h, 14 DAA",94.3%
same,pest or weed control at 280 g/ha,"[2]; 504 h, 21 DAA",90.4%
same,pest or weed control at 560 g/ha,"[2]; 504 h, 21 DAA",95%
same,pest or weed control at 280 g/ha,"[3]; 168 h, 7 DAA",77.5%
same,pest or weed control at 560 g/ha,"[3]; 168 h, 7 DAA",85%
same,pest or weed control at 280 g/ha,"[3]; 336 h, 14 DAA",98%
same,pest or weed control at 560 g/ha,"[3]; 336 h, 14 DAA",94.5%
same,pest or weed control at 280 g/ha,"[3]; 504 h, 21 DAA",98.5%
same,pest or weed control at 560 g/ha,"[3]; 504 h, 21 DAA",100%
same,pest or weed control at 280 g/ha,"[4]; 168 h, 7 DAA",75%
same,pest or weed control at 560 g/ha,"[4]; 168 h, 7 DAA",85%
same,pest or weed control at 280 g/ha,"[4]; 336 h, 14 DAA",90%
same,pest or weed control at 560 g/ha,"[4]; 336 h, 14 DAA",96%
same,pest or weed control at 280 g/ha,"[4]; 504 h, 21 DAA",62.5%
same,pest or weed control at 560 g/ha,"[4]; 504 h, 21 DAA",77.5%
same,pest or weed control at 280 g/ha,"[5]; 168 h, 7 DAA",60%
same,pest or weed control at 560 g/ha,"[5]; 168 h, 7 DAA",82.5%
same,pest or weed control at 280 g/ha,"[5]; 336 h, 14 DAA",75%
same,pest or weed control at 560 g/ha,"[5]; 336 h, 14 DAA",98.5%
same,pest or weed control at 280 g/ha,"[5]; 504 h, 21 DAA",92.5%
same,pest or weed control at 560 g/ha,"[5]; 504 h, 21 DAA",100%
same,"TGA Data (rate of weight loss, volatility)",[6]; [8],1.27* μg/min
same,pest or weed control at 280 g/ha,"[7]; 168 h, 7 DAA",80%
same,pest or weed control at 560 g/ha,"[7]; 168 h, 7 DAA",90%
same,pest or weed control at 280 g/ha,"[7]; 336 h, 14 DAA",75%
same,pest or weed control at 560 g/ha,"[7]; 336 h, 14 DAA",82.5%
same,pest or weed control at 280 g/ha,"[7]; 504 h, 21 DAA",100%
same,pest or weed control at 560 g/ha,"[7]; 504 h, 21 DAA",100%
O=C(COc1ccc(Cl)cc1Cl)O/N=C/c1cccnc1 [Compound A29],pest or weed control at 280 g/ha,"[1]; 168 h, 7 DAA",77.5%
same,pest or weed control at 560 g/ha,"[1]; 168 h, 7 DAA",82.5%
same,pest or weed control at 280 g/ha,"[1]; 336 h, 14 DAA",100%
same,pest or weed control at 560 g/ha,"[1]; 336 h, 14 DAA",99%
same,pest or weed control at 280 g/ha,"[1]; 504 h, 21 DAA",99%
same,pest or weed control at 560 g/ha,"[1]; 504 h, 21 DAA",96.5%
same,pest or weed control at 280 g/ha,"[2]; 168 h, 7 DAA",71.5%
same,pest or weed control at 560 g/ha,"[2]; 168 h, 7 DAA",79.7%
same,pest or weed control at 280 g/ha,"[2]; 336 h, 14 DAA",85.8%
same,pest or weed control at 560 g/ha,"[2]; 336 h, 14 DAA",94.7%
same,pest or weed control at 280 g/ha,"[2]; 504 h, 21 DAA",88.1%
same,pest or weed control at 560 g/ha,"[2]; 504 h, 21 DAA",98.3%
same,pest or weed control at 280 g/ha,"[3]; 168 h, 7 DAA",82.5%
same,pest or weed control at 560 g/ha,"[3]; 168 h, 7 DAA",77.5%
same,pest or weed control at 280 g/ha,"[3]; 336 h, 14 DAA",96.5%
same,pest or weed control at 560 g/ha,"[3]; 336 h, 14 DAA",95%
same,pest or weed control at 280 g/ha,"[3]; 504 h, 21 DAA",91.5%
same,pest or weed control at 560 g/ha,"[3]; 504 h, 21 DAA",97.5%
same,pest or weed control at 280 g/ha,"[4]; 168 h, 7 DAA",70%
same,pest or weed control at 560 g/ha,"[4]; 168 h, 7 DAA",91%
same,pest or weed control at 280 g/ha,"[4]; 336 h, 14 DAA",90%
same,pest or weed control at 560 g/ha,"[4]; 336 h, 14 DAA",97%
same,pest or weed control at 280 g/ha,"[4]; 504 h, 21 DAA",72.5%
same,pest or weed control at 560 g/ha,"[4]; 504 h, 21 DAA",100%
same,pest or weed control at 280 g/ha,"[5]; 168 h, 7 DAA",50%
same,pest or weed control at 560 g/ha,"[5]; 168 h, 7 DAA",70%
same,pest or weed control at 280 g/ha,"[5]; 336 h, 14 DAA",67.5%
same,pest or weed control at 560 g/ha,"[5]; 336 h, 14 DAA",82.5%
same,pest or weed control at 280 g/ha,"[5]; 504 h, 21 DAA",77.5%
same,pest or weed control at 560 g/ha,"[5]; 504 h, 21 DAA",97.5%
same,"TGA Data (rate of weight loss, volatility)",[6],0.38 µg/min
same,pest or weed control at 280 g/ha,"[7]; 168 h, 7 DAA",77.5%
same,pest or weed control at 560 g/ha,"[7]; 168 h, 7 DAA",77.5%
same,pest or weed control at 280 g/ha,"[7]; 336 h, 14 DAA",75%
same,pest or weed control at 560 g/ha,"[7]; 336 h, 14 DAA",100%
same,pest or weed control at 280 g/ha,"[7]; 504 h, 21 DAA",100%
same,pest or weed control at 560 g/ha,"[7]; 504 h, 21 DAA",100%
